In patent publication US7138361B2, “Herbicidal heterocycles” (E. I. du Pont de Nemours and Company, priority 2000, dated 2006):

Columns and labels:
Format in all cases: in vivo
[1] = test system: barnyardgrass (Echinochloa crus-galli); assay: Test C flooded paddy test; conditions: for Barnyardgrass plant response rating: Flooded Paddy, scale 0 to 100, 0 no effect, 100 complete control; for Plant response rating, Barnyardgrass: flooded paddy test, scale 0 to 100 (0 no effect, 100 complete control)
Procedure, shortened: (§1)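 Visually assessed vs untreated controls 12–14 d post-treatment (greenhouse). Flooded paddy plants were at the 2-leaf stage; scale 0 = no effect, 100 = complete control.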

[2] = test system: duck salad (Heteranthera limosa); assay: Test C flooded paddy test; conditions: for Ducksalad plant response rating: Flooded Paddy, scale 0 to 100, 0 no effect, 100 complete control; for Plant response rating, Ducksalad: flooded paddy test, scale 0 to 100 (0 no effect, 100 complete control)
Procedure, shortened: as §1

[3] = test system: rice (Oryza saliva); assay: Test C flooded paddy test; conditions: for Rice plant response rating: Flooded Paddy, scale 0 to 100, 0 no effect, 100 complete control; for Plant response rating, Rice: flooded paddy test, scale 0 to 100 (0 no effect, 100 complete control)
Procedure, shortened: as §1

[4] = test system: Sunflower; assay: Test C preemergence; conditions: scale 0 to 100

SMILES	Barnyardgrass plant response rating ([1]; Rate 250 g/ha)	Barnyardgrass plant response rating ([1]; Rate 500 g/ha)	Plant response rating, Barnyardgrass ([1]; Rate 62 g/ha)	Plant response rating, Barnyardgrass ([1]; Rate 125 g/ha)	Ducksalad plant response rating ([2]; Rate 250 g/ha)	Ducksalad plant response rating ([2]; Rate 500 g/ha)	Plant response rating, Ducksalad ([2]; Rate 62 g/ha)	Plant response rating, Ducksalad ([2]; Rate 125 g/ha)	Rice plant response rating ([3]; Rate 250 g/ha)	Rice plant response rating ([3]; Rate 500 g/ha)	Plant response rating, Rice ([3]; Rate 62 g/ha)	Plant response rating, Rice ([3]; Rate 125 g/ha)	Plant response rating, Sunflower ([4]; Rate 16 g/ha)	Plant response rating, Sunflower ([4]; Rate 31 g/ha)
CC(C)(C)c1ccn(C2CCN(c3cccc(Cl)c3)C2=O)n1 (stereo not drawn) [Compound 43]	100	100	30	80	30	80	0	20	0	30	0	0	0	0
CC(C)(C)c1ccn(C2CCN(c3cccc(OC(F)(F)F)c3)C2=O)n1 (stereo not drawn) [Compound 49]	100	100	100	100	90	100	50	70	30	90	20	–	–	0
CC1(c2ccn(C3SCN(c4cccc(OC(F)(F)F)c4)C3=O)n2)CC1 (stereo not drawn) [Compound 63]	70	100	20	40	80	100	20	20	40	40	0	20	–	–
CC1(c2ccn(C3SCN(c4cccc(C(F)(F)F)c4)C3=O)n2)CC1 (stereo not drawn) [Compound 64]	80	100	20	80	90	90	0	30	80	90	0	20	–	–
CCC(C)c1ccn(C2OCN(c3cccc(OC(F)(F)F)c3)C2=O)n1 (stereo not drawn) [Compound 67]	100	100	60	70	100	100	50	90	60	90	20	40	–	–
CC1(c2ccn(C3OCN(c4cccc(OC(F)(F)F)c4)C3=O)n2)CC1 (stereo not drawn) [Compound 69]	100	100	30	30	0	20	0	0	40	80	0	20	–	–
COc1cc(OC)cc(N2CCC(n3ccc(C(C)(C)C)n3)C2=O)c1 (stereo not drawn) [Compound 71]	0	80	0	0	30	30	0	20	0	60	0	0	–	–
CCOC(=O)c1cccc(N2CCC(n3ccc(C(C)(C)C)n3)C2=O)c1 (stereo not drawn) [Compound 72]	50	80	0	50	90	90	40	80	40	50	0	20	–	–
CC(C)(C)c1ccn(C2CCN(c3ccc(F)c(Br)c3)C2=O)n1 (stereo not drawn) [Compound 75]	80	100	70	–	–	90	70	80	30	40	0	0	–	–
CC(C)(C)c1ccn(C2CCN(c3cccc(OC(F)F)c3)C2=O)n1 (stereo not drawn) [Compound 76]	90	90	40	90	80	100	30	80	80	80	20	40	–	–
Cc1ccc(N2CCC(n3ccc(C(C)(C)C)n3)C2=O)cc1OC(F)F (stereo not drawn) [Compound 79]	90	90	30	40	90	90	0	30	20	50	0	20	–	–
CC(C)Oc1cccc(N2CCC(n3ccc(C(C)C)n3)C2=O)c1 (stereo not drawn) [Compound 82]	100	100	30	60	90	100	20	30	60	80	0	30	–	–
CCC(C)c1ccn(C2CCN(c3cccc(OC(C)C)c3)C2=O)n1 (stereo not drawn) [Compound 83]	70	100	60	70	100	100	40	40	70	80	20	20	–	–
